Experimental data: US9717665B2, “Tooth desensitizing oral care compositions, devices, and methods” (The Procter & Gamble Company, priority 2013, dated 2017)

Test system: human 3rd molar coronal dentin
Test: Dentinal flow rate measurement (Pashley-like flow cell)
Details: repeated deposition
Experimental: Volumetric flow rates through cross-sections of human 3rd molar coronal dentin are measured before and after treatment using a flow cell apparatus (FIG. 6). Twenty two coronal dentin sections of human molars are obtained by cross sectional cutting with a diamond blade saw to a thickness between 0.80 and 1.00 mm. The sections resemble disks due to the circular nature of molars. The center of the disk is dentin 90 with a thin ring of enamel around the circumference (FIG. 6). The cut dentin disks are then placed in 6.0% citric acid for two minutes followed by sonication in water and subsequent rinsing to remove the smear layer created by the cutting process. The removal of the smear layer with citric acid is an effective and well known technique to produce open dentinal tubules representative of sensitive dentin found in-vivo. […]
Each dentin disk section is centered over the opening with flat washers 110 and bushing 120 on each side, making sure that the section spanned the opening with at least 1 mm overlap around the entire perimeter. […] The liquid velocity is recorded by timing the movement of the bubble within the supply line. […] Using a digital stop watch, elapsed times are recorded over 4 equidistant points along the ruler to establish the average rate the bubble travels and to ensure the velocity is constant. […]

O=C(O)C(=O)O [oxalate]
Flow rates through dentin: significantly reduce flow rates through dentin
